Nine compounds from ChEMBL document CHEMBL5154707, “Synthesis and biological evaluation of novel hybrids of phenylsulfonyl furoxan and phenstatin derivatives as potent anti-tumor agents” (Eur J Med Chem, 2022) can be followed below.

Active and inactive are the calls of the source. The calls are words filed in the database; no cut-off is given here.

Data set [1] deals with T1, Tubulin (Homo sapiens) (UniProt P68371+Q9H4B7+P0DPH7+P68366+Q13509+Q71U36+P04350+Q3ZCM7+P07437+P68363+Q9BQE3+Q6PEY2+Q13885+Q9BVA1+Q9BUF5). Nature of the data set: Inhibition of tubulin polymerization in A549 cells assessed as disruption of microtubule network at 10 to 20 nM measured by immunofluorescence assay. Format: cell-based. As to conditions: dose 10-20 nM.
For data set [2], the target named is T1, Tubulin (Homo sapiens). Nature of the data set: Inhibition of tubulin polymerization in A549 cells assessed as disruption of microtubule network at 20 nM measured by immunofluorescence assay. In kind it is cell-based.
For data set [3], the target named is Tubulin (Sus scrofa, UniProt P02554+P02550). Nature of the data set: Inhibition of pig brain tubulin polymerization.
For data set [4], the system named is MDA-MB-231. Nature of the data set: cells. The settings on record: Homo sapiens, MDA-MB-231, 48 h.
Description: Antiproliferative activity against human MDA-MB-231 cells after 48 hrs by MTT assay
In data set [5] the test system is HCT-116. The data set is described as follows: Antiproliferative activity against human HCT-116 cells after 48 hrs by MTT assay. As to conditions: HCT-116, 48 h. On the technique in general: Formazan colour is commonly taken as a measure of viable cells.
Data set [6] concerns A549. The data set is described as follows: cells. As to conditions: Homo sapiens, A549, 48 h.
Data set [7] has as its system A2780. The data set is described as follows: cells. As to conditions: Homo sapiens, A2780, 48 h.
Description: Antiproliferative activity against human A2780 cells after 48 hrs by MTT assay
Data set [8] concerns A2780. Nature of the data set: Induction of nitric oxide release in human A2780 cells measured by Griess reagent based assay. Format: functional, cell-based.
Data set [9] can be described thus: Cytotoxicity against human HOSE cells after 48 hrs by MTT assay. In kind it is toxicity, cell-based.
Data set [10] is described as follows: Resistant factor, ratio of IC50 for antiproliferative activity against human A2780 cisR cells to IC50 for human A2780 cells. In kind it is functional.
In data set [11] the test system is A2780cisR. Nature of the data set: Antiproliferative activity against human A2780 cisR cells after 48 hrs by MTT assay. Format: functional, cell-based.
Data set [12] is described as follows: Antiproliferative activity against human A2780/PTX cells after 48 hrs by MTT assay.
A short description of data set [13]: Resistant factor, ratio of IC50 for antiproliferative activity against human A2780/PTX cells to IC50 for human A2780 cells. In kind it is functional.

For the compound `COc1cc(OCCOc2no[n+]([O-])c2S(=O)(=O)c2ccccc2)cc(C(=O)c2ccc(Br)cc2)c1`, the inhibition entry in data set [1] and in data set [2] was “Active” throughout. For the same compound, the IC50 (as a rule, the concentration that gives 50% inhibition) in data set [3] amounted to 1.6 µM.

On to `COc1ccc(C(=O)c2ccc(F)cc2)cc1O`, for which the IC50 in data set [4], in [5], in [6] and in data set [7] was > 20 µM throughout.

As to `COc1ccc(C(=O)c2ccc(Cl)cc2)cc1O`, the half-inhibitory concentration (IC50) in [4] was found to be 4.18 µM; in data set [5], 2.65 µM; in data set [6], 6.64 µM; in [7], 3.69 µM.

With `O=S(=O)(c1ccccc1)c1no[n+]([O-])c1S(=O)(=O)c1ccccc1`, the results for the IC50 in data set [4], in data set [5] and in data set [6] were 1.87 µM, 2.68 µM and 235 µM, respectively. Besides, the result in [8] was Active.

On to `COc1ccc(C(=O)c2ccc3ccccc3c2)cc1O`, for which the IC50 in [4] came to 0.12 µM; in [5], 124 µM; in data set [6] it was 34 µM; in data set [7] it was 0.17 µM.

For the compound `COc1ccc(/C=C\c2cc(OC)c(OC)c(OC)c2)cc1O` [COMBRETASTATIN A4], the IC50 amounted to 0.012 µM in data set [4] and 0.006 µM in data set [6].

Regarding `CC(=O)O[C@H]1C(=O)[C@@]2(C)[C@H]([C@H](OC(=O)c3ccccc3)[C@]3(O)C[C@H](OC(=O)[C@H](O)[C@@H](NC(=O)c4ccccc4)c4ccccc4)C(C)=C1C3(C)C)[C@]1(OC(C)=O)CO[C@@H]1C[C@@H]2O` [PACLITAXEL], in [9], the IC50 at 48 h came to 0.018 µM.

`COc1ccc(C(=O)c2cc(OC)c(OC)c(OC)c2)cc1O` [PHENSTATIN]: the IC50 was 0.051 µM in data set [4]; 0.17 µM in data set [5]; 21 µM in data set [6]; 0.12 µM in data set [7]; 2.85 µM in data set [11]; 9.35 µM in data set [12]. Further, the outcome in [8] was Active. For the same compound, the “Ratio IC50” value in data set [10] is 23.8; in data set [13] it was 77.9. The same compound gave an IC50 at 48 h in data set [9] of 0.16 µM.

Turning to `COc1ccc(C(=O)c2ccc(Br)cc2)cc1O`, the IC50 in data set [4] stood at 2.11 µM; in data set [5] it was 3.65 µM; in [6] it was 224 µM; in data set [7], 1.16 µM.
